Experimental findings from patent US20040138230A1, “Heterocyclic substituted piperazines for the treatment of schizophrenia” (priority 2002, published 2004) are described below.

In series [1] the target is serotonin 2A (5HT2A) receptor (Homo sapiens, UniProt P28223).
Description: The ability of the novel compounds of this invention to bind to the dopamine D2 and serotonin 2A (5HT2A) receptors can be determined using conventional radioligand receptor binding assays. All receptors can be heterologously expressed in cell lines and experiments conducted in membrane preparations from the cell lines using procedures outlined below. IC50 concentrations can be determined by nonlinear regression of concentration-dependent reduction in specific binding. The Cheng-Prussoff equation can be used to convert the IC50 to Ki concentrations.
[^3H]Ketanserin binding to Swiss-h5HT2A cell membranes can be carried out in 250 μl of 50 mM Tris-HCl buffer pH 7.4. Duplicate samples containing (in order of addition) test compounds, 1.0 nM [^3H]ketanserin, and approximately 75 μg protein are incubated for 120 minutes at room temperature. Bound radioligand is separated by rapid filtration under reduced pressure through Whatman GF/B glass fiber filters previously treated with 0.3% polyethyleneimine. Radioactivity retained on the filter is determined by liquid scintillation spectrophotometry.
The next series concerns the target dopamine D2 receptor (Homo sapiens, UniProt P14416).

Sequence of dopamine D2 receptor (P14416 whole entry): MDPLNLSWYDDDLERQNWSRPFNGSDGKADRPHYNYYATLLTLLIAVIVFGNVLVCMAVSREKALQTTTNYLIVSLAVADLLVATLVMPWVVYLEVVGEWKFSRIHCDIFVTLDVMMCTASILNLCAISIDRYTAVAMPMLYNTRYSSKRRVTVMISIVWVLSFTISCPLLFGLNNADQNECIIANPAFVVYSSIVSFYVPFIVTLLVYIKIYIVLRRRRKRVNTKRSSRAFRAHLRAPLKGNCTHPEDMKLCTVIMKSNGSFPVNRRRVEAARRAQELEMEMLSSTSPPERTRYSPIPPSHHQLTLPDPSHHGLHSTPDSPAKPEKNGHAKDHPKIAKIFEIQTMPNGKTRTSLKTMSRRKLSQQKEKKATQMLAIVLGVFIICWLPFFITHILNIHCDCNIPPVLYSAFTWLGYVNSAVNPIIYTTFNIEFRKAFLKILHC
Sequence of serotonin 2A (5HT2A) receptor (P28223 whole entry): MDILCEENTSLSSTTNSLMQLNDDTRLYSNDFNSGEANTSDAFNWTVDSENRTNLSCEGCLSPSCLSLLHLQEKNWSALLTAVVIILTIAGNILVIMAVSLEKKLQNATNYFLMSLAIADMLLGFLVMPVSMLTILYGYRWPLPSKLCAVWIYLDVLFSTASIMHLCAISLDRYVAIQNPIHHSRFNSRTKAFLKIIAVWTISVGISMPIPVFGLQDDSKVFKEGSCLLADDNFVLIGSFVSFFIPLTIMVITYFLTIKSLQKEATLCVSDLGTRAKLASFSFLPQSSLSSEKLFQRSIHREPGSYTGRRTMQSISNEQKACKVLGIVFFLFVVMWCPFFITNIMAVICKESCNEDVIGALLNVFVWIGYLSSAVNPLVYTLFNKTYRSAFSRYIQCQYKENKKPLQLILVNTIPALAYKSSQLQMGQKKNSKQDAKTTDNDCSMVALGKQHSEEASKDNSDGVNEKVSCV

Regarding `CC1(C)Cc2cc(CCN3CCN(c4noc5ccccc45)CC3)ccc2NC1=O` [Example 8, 6-[2-(4-BENZO[D]ISOXAZOL-3-YL-PIPERAZIN-1-YL)-ETHYL]-3,3-DIMETHYL-3,4-DIHYDRO-1H-QUINOLIN-2-ONE], the Ki in series [1] is 5 nM; on dopamine D2 receptor it was 7 nM.

For the compound `Cc1c(Cl)c(CCN2CCN(c3nsc4ccccc34)CC2)cc2c1NC(=O)CC2(C)C` [Example 23, 6-[2-(4-BENZO[D]ISOTHIAZOL-3-YL-PIPERAZIN-1-YL)-ETHYL]-7-CHLORO-4,4,8-TRIMETHYL-3,4-DIHYDRO-1H-QUINOLIN-2-ONE METHANESULFONATE], the Ki was determined as 1 nM in series [1] and 0.9 nM on dopamine D2 receptor.

On to `COc1cccc2c(N3CCN(CCc4cc(C)c5c(c4)C(C)(C)CC(=O)N5)CC3)nsc12` [Example 31, 6-{2-[4-(7-METHOXY-BENZO[D]ISOTHIAZOL-3-YL)-PIPERAZIN-1-YL]-ETHYL}-4,4,8-TRIMETHYL-3,4-DIHYDRO-1H-QUINOLIN-2-ONE], for which the Ki in series [1] is 2 nM; on dopamine D2 receptor it was 1 nM.

On to `CC1Cc2cc(CCCN3CCN(c4nsc5ccccc45)CC3)ccc2NC1=O` (stereo not shown) [Example 59, 6-[3-(4-BENZO[D]ISOTHIAZOL-3-YL-PIPERAZIN-1-YL)-PROPYL]-3-METHYL-3,4-DIHYDRO-1H-QUINOLIN-2-ONE], for which the melting point was 212 °C.

The compound `CC1Cc2cc(CCCN3CCN(c4noc5ccccc45)CC3)ccc2NC1=O` (stereo not shown) [Example 60, 6-[3-(4-BENZO[D]ISOXAZOL-3-YL-PIPERAZIN-1-YL)-PROPYL]-3-METHYL-3,4-DIHYDRO-1H-QUINOLIN-2-ONE] showed a melting point of 185 to 187 °C.

The compound `CN1Cc2c(c3cc(CCCN4CCN(c5nsc6ccccc56)CC4)ccc3[nH]c2=O)C1` [Example 172, 8-[3-(4-BENZO[D]ISOTHIAZOL-3-YL-PIPERAZIN-1-YL)-PROPYL]-2-METHYL-1,2,3,5-TETRAHYDRO-PYRROLO[3,4-C]QUINOLIN-4-ONE] yielded a melting point of 206 to 208 °C.

`CN1Cc2c(c3cc(CCN4CCN(c5nsc6ccccc56)CC4)ccc3[nH]c2=O)C1` [Example 173, 8-[2-(4-BENZO[D]ISOTHIAZOL-3-YL-PIPERAZIN-1-YL)-ETHYL]-2-METHYL-1,2,3,5-TETRAHYDRO-PYRROLO[3,4-C]QUINOLIN-4-ONE]: the melting point lay within 205 to 207 °C.
